One assay concerns 4C6 T cell clone. Kind of assay: Peptide titration activation assay of 4C6 T cell clone, MIP-1β ELISA. Type of assay: cell-based, human. The following applies: duplicate conditions. (ELISA stands for enzyme-linked immunosorbent assay.)
The subject of assay [1] is tetramer-enriched T cell lines from HLA A*24+ healthy donors. Kind of assay: Tetramer staining of tetramer-enriched T cell lines from HLA A*24+ healthy donors. Type of assay: cell-based, human.
Description: The 4C6 T-cell clone was rested overnight in R5 media, as above then incubated with antigen presenting
cells, with 3 x104 4C6 T-cells and 6 x10^4 antigen presenting cells per well of a 96U well plate. The cells were
incubated overnight in R5 media at 37°C and 5% CO2, with all conditions performed in triplicate.
Supernatants were harvested and MIP-1β or TNF production measured by enzyme-linked immunosorbent
assay (ELISA, R&D Systems, Bio-Techne, Minneapolis, MN, US). Experiment 1 used C1R cells +/- HLA
A*24:02 +/- IGF2BP2 (irrelevant control), gsiA or fes genes. Experiment 2 used THP-1 and A549 cells: WT
and + HLA A*A24:02 +/- gsiA or fes genes. PHA (10 μg/mL) as a positive control and exogenous Klebsiella
peptides at 10 μM for comparison were also included. MIP-1β or TNF values for 4C6 T-cells or antigen
presenting cells incubated alone were subtracted during analysis.
[2] abbreviates: Supplementary Figure 5, 60 biased-sampling peptides and index, 4C6 overnight with C1R-HLA A24:02, MIP-1β ELISA.

In general, EC50 refers to the midpoint of the concentration-response curve. A low value points to greater potency.

Description for 4C6 T cell clone: 4C6 T-cells were rested overnight in R5 media (as for R10 but with 5% FBS) to reduce
spontaneous activation, followed by incubation in the presence of C1R-HLA A*24:02, with peptide mixtures
of defined length and random amino acid sequence (X8-14 in which X is any of the 20 proteogenic L-amino
acids, excluding cysteine) in R5 media overnight at 37°C and 5% CO2. MIP-1β production was measured by
enzyme-linked immunosorbent assay (ELISA, R&D Systems, Bio-Techne, Minneapolis, MN, US) as a proxy
for T cell activation as previously described (22). Peptide mixtures were synthesised at >40% purity
(Pepscan Presto, Lelystad, Netherlands) and stored at -80°C in DMSO at 40 mM. Mixtures were used in
assays at a concentration of 1 mM. Following conformation of the preference of 4C6 T-cells for 9-mer
peptides, nonamer PS-CPL screening was performed using libraries synthesised at >40% purity as
described previously (22, 23, 43). Libraries were stored at -80°C in DMSO at 20 mM. For assays, 6×104
C1R-HLA A*24:02 were pulsed with 100 μM of each CPL library mixture for 2 h at 37°C. Following this,
3×10^4 4C6 T cells were co-incubated with the pulsed C1R-HLA A*24:02 cells overnight at 37°C and 5% CO2.
Assay conditions were performed in duplicate. Supernatants were harvested the following morning and
assayed for the presence of MIP-1β, as above, by ELISA.
universe with bias toward good agonists.

With “QMPPLVNIM [9-mer drawn by CPL-biased importance sampling]”, in the assay on 4C6 T cell clone (setting [2]), the EC50 was > 10 µM.

Turning to “SNPPLMGLM [9-mer drawn by CPL-biased importance sampling]”, the EC50 in the assay on 4C6 T cell clone (setting [2]) was > 10 µM. Same read-out and setting: next, “EYMPLVGML [9-mer drawn by CPL-biased importance sampling]”: > 10 µM.

As for “RYPPLVPML [9-mer drawn by CPL-biased importance sampling]”, the half-maximal effective concentration (EC50) in the assay with 4C6 T cell clone (setting [2]) is > 10 µM. Same read-out and setting: the value for “EWQPLFSIA [9-mer drawn by CPL-biased importance sampling]” was > 10 µM. Same read-out and setting: the value for “EMQPLFGMV [9-mer drawn by CPL-biased importance sampling]” was > 10 µM. On the same count and under the same terms, next, “KNLPLVPII [9-mer drawn by CPL-biased importance sampling]”: > 10 µM; “QMQRLVNIV [9-mer drawn by CPL-biased importance sampling]”: > 10 µM.

For the sequence “SWLRLFNMM [9-mer drawn by CPL-biased importance sampling]”, the EC50 in the assay with 4C6 T cell clone (setting [2]) is > 10 µM. The same measure, in the same setting: the value for “SMMRLLPVW [9-mer drawn by CPL-biased importance sampling]” was > 10 µM; that for “RLMPLVPVV [9-mer drawn by CPL-biased importance sampling]” was > 10 µM. The same measure, in the same setting: next, “QWPRLVNVF [9-mer drawn by CPL-biased importance sampling]”: > 10 µM. Still for that read-out and setting: next, “DKPRLVPVI [9-mer drawn by CPL-biased importance sampling]”: > 10 µM; “RNPPLVGIW [9-mer drawn by CPL-biased importance sampling]”: > 10 µM. As to “SYPPLVGMV [9-mer drawn by CPL-biased importance sampling]”, in the assay on 4C6 T cell clone (setting [2]), the 50% effective concentration (EC50) was > 10 µM. Still for that read-out and setting: the value for “SLLPLLGIL [9-mer drawn by CPL-biased importance sampling]” was > 10 µM.

Regarding “NLMRLMNLA [9-mer drawn by CPL-biased importance sampling]”, the EC50 in the assay with 4C6 T cell clone (setting [2]) was > 10 µM. As for “ALMRLFSLF [9-mer drawn by CPL-biased importance sampling]”, the EC50 in the assay with 4C6 T cell clone (setting [2]) was > 10 µM. Same read-out and setting: next, “DHPPLFPMA [9-mer drawn by CPL-biased importance sampling]”: > 10 µM; “RLLPLVSVI [9-mer drawn by CPL-biased importance sampling]”: > 10 µM. Still for that read-out and setting: next, “QYLRLFNIT [9-mer drawn by CPL-biased importance sampling]”: > 10 µM.

On to “ELPPLMSVW [9-mer drawn by CPL-biased importance sampling]”, for which the EC50 in the assay on 4C6 T cell clone (setting [2]) is > 10 µM.

“LYQPLVGMV [9-mer drawn by CPL-biased importance sampling]”: the EC50 in the assay with 4C6 T cell clone (setting [2]) was > 10 µM. Still for that read-out and setting: the value for “QHPPLASLI [9-mer drawn by CPL-biased importance sampling]” was > 10 µM; that for “DLQRLVSVI [9-mer drawn by CPL-biased importance sampling]” was > 10 µM; that for “DNPRLFGLT [9-mer drawn by CPL-biased importance sampling]” was > 10 µM. The same measure, in the same setting: the value for “QMLPLLPLF [9-mer drawn by CPL-biased importance sampling]” was > 10 µM; that for “KWLRLMPMM [9-mer drawn by CPL-biased importance sampling]” was > 10 µM. Still for that read-out and setting: next, “RHMRLFGML [9-mer drawn by CPL-biased importance sampling]”: > 10 µM; “IWPPLVPVT [9-mer drawn by CPL-biased importance sampling]”: > 10 µM; “SNMRLMPVV [9-mer drawn by CPL-biased importance sampling]”: > 10 µM. With “ILMPLMPMT [9-mer drawn by CPL-biased importance sampling]”, the EC50 in the assay on 4C6 T cell clone (setting [2]) was > 10 µM. Still for that read-out and setting: next, “QKLPLLGLL [9-mer drawn by CPL-biased importance sampling]”: > 10 µM. Same read-out and setting: next, “QKQRLASIL [9-mer drawn by CPL-biased importance sampling]”: > 10 µM. Still for that read-out and setting: next, “NWQPLVSIW [9-mer drawn by CPL-biased importance sampling]”: > 10 µM; “DMMPLLPII [9-mer drawn by CPL-biased importance sampling]”: > 10 µM. Take “EYPPLLNIL [9-mer drawn by CPL-biased importance sampling]”: the 50% effective concentration (EC50) with 4C6 T cell clone (setting [2]) was > 10 µM. Same read-out and setting: next, “AHPPLFNVM [9-mer drawn by CPL-biased importance sampling]”: > 10 µM. As for “ENMPLMPMI [9-mer drawn by CPL-biased importance sampling]”, the EC50 with 4C6 T cell clone (setting [2]) is > 10 µM. In the case of “AYAAAAAAL [irrelevant HLA A*24:02 peptide used in control tetramers]”, the “% tetramer+” value in assay [1] (CMV […] tetramer-enriched line, donor 572D, single-staining) is listed as 0%; in assay [1] (CMV […] tetramer-enriched line, donor BB25, single-staining), 0.05%; in assay [1] (CMV […] tetramer-enriched line, donor BB31, single-staining), 0.05%; in assay [1] (CMV […] tetramer-enriched line, donor BB51, single-staining), 0.1%; in assay [1] (CMV […] tetramer-enriched line, donor BB52, single-staining), 0.04%; in assay [1] (CMV […] tetramer-enriched line, donor BB57, single-staining) it was 0.02%. The “% tetramer+” value in assay [1] (CMV […] tetramer-enriched line, donor BB64, single-staining) is 0.3%; in assay [1] (Kleb SLPRLFPLL tetramer-enriched line, donor 572D, single-staining), 0%; in assay [1] (Kleb SLPRLFPLL tetramer-enriched line, donor BB25, single-staining) it was 0.03%; in assay [1] (Kleb SLPRLFPLL tetramer-enriched line, donor BB31, single-staining), 0.5%; in assay [1] (Kleb SLPRLFPLL tetramer-enriched line, donor BB51, single-staining), 0.1%; in assay [1] (Kleb SLPRLFPLL tetramer-enriched line, donor BB52, single-staining), 0%. Also, the “% tetramer+” value was 0.06% in assay [1] (Kleb SLPRLFPLL tetramer-enriched line, donor BB57, single-staining) and 0.4% in assay [1] (Kleb SLPRLFPLL tetramer-enriched line, donor BB64, single-staining). “HYQPLVPVL [9-mer drawn by CPL-biased importance sampling]”: the EC50 in the assay with 4C6 T cell clone (setting [2]) is > 10 µM. On the same count and under the same terms, next, “IWQPLAGVA [9-mer drawn by CPL-biased importance sampling]”: > 10 µM. Regarding “DYQRLVNLL [9-mer drawn by CPL-biased importance sampling]”, the EC50 in the assay with 4C6 T cell clone (setting [2]) was > 10 µM. “NHPRLVGVI [9-mer drawn by CPL-biased importance sampling]”: the EC50 with 4C6 T cell clone (setting [2]) is > 10 µM. Regarding “EYPPLVPIL [fungal peptide, Aspergillus niger, Unnamed protein product]”, the EC50 in the assay with 4C6 T cell clone (Supplementary Figure 6, top 20 fungal database peptides, 4C6 overnight with C1R HLA A*24:02, MIP-1β ELISA) was > 10 µM. As to “LLMPLVGLW [9-mer drawn by CPL-biased importance sampling]”, in the assay with 4C6 T cell clone (setting [2]), the EC50 is > 10 µM. Still for that read-out and setting: next, “NKLRLVNIM [9-mer drawn by CPL-biased importance sampling]”: > 10 µM. Take “HYMPLFGVT [9-mer drawn by CPL-biased importance sampling]”: in the assay on 4C6 T cell clone (setting [2]), the EC50 was > 10 µM. On the same count and under the same terms, the value for “LMMPLAPMM [9-mer drawn by CPL-biased importance sampling]” was > 10 µM; that for “QKQPLLPII [9-mer drawn by CPL-biased importance sampling]” was > 10 µM.

Values taken from paper PMC11405051, “HLA A*24:02–restricted T cell receptors cross-recognize bacterial and preproinsulin peptides in type 1 diabetes” (The Journal of Clinical Investigation, 2024).
